# The supplement of paper PMC11061612
# Tested on: U-698-M
# Conditions: B-Cell Non-Hodgkin's Lymphoma, max 0.001 µM
# Outline: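 Cancer cell lines in 1536-well plates (7.5 μl DMEM/F12 or RPMI, 10% FBS) were held 24 hours at 37°C and 5% CO2 and then dosed for 72 hours at a final DMSO of typically 0.2%. Viability was taken from CellTiter-Glo 2.0 luminescence, scaled between blank-well and DMSO-well means. Curves were fitted as two-parameter logistic models with a non-linear mixed effects model, from which the single-agent IC50 was taken.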
row,SMILES,"IC50, cell viability 72 h"
1,COc1cc2c(cc1OCCCCCOc1cc3c(cc1OC)C(=O)N1C=C(C)C[C@H]1C=N3)N=C[C@@H]1CC(C)=CN1C2=O [SG3199],> 1 nM

# Same assay, conditions: B-Cell Non-Hodgkin's Lymphoma, max 0.3 µM
row,SMILES,"IC50, cell viability 72 h"
1,Nc1ccn([C@@H]2O[C@H](CO)[C@@H](O)C2(F)F)c(=O)n1 [Gemcitabine],130 nM
2,CCc1c2c(nc3ccc(O)cc13)-c1cc3c(c(=O)n1C2)COC(=O)[C@]3(O)CC [SN-38],22 nM

# Same assay, conditions: B-Cell Non-Hodgkin's Lymphoma, max 1 µM
row,SMILES,"IC50, cell viability 72 h"
1,COc1cccc2c1C(=O)c1c(O)c3c(c(O)c1C2=O)C[C@@](O)(C(=O)CO)C[C@@H]3O[C@H]1C[C@H](N)[C@H](O)[C@H](C)O1 [Doxorubicin],495 nM
2,COc1cccc(OCCCN)c1-c1cc(Nc2cnc(C#N)cn2)n[nH]1 [Prexasertib],11.1 nM
3,C[C@@H](c1ccc2nccn2c1)n1nnc2ncc(-c3cnn(C)c3)nc21 [Savolitinib],> 1000 nM
4,CC(=O)Nc1cccc(-n2c(=O)n(C3CC3)c(=O)c3c(Nc4ccc(I)cc4F)n(C)c(=O)c(C)c32)c1 [Trametinib],> 1000 nM
5,CC1(C)CCC(CN2CCN(c3ccc(C(=O)NS(=O)(=O)c4ccc(NCC5CCOCC5)c([N+](=O)[O-])c4)c(Oc4cnc5[nH]ccc5c4)c3)CC2)=C(c2ccc(Cl)cc2)C1 [Venetoclax],> 1000 nM

# Same assay, conditions: B-Cell Non-Hodgkin's Lymphoma, max 3 µM
row,SMILES,"IC50, cell viability 72 h"
1,CC(=O)O[C@H]1C(=O)[C@@]2(C)[C@H]([C@H](OC(=O)c3ccccc3)[C@]3(O)C[C@H](OC(=O)[C@H](O)[C@@H](NC(=O)c4ccccc4)c4ccccc4)C(C)=C1C3(C)C)[C@]1(OC(C)=O)CO[C@@H]1C[C@@H]2O [Paclitaxel],5.9 nM

# Same assay, conditions: B-Cell Non-Hodgkin's Lymphoma, max 10 µM
row,SMILES,"IC50, cell viability 72 h"
1,COc1cc([C@@H]2c3cc4c(cc3[C@@H](O[C@@H]3O[C@@H]5CO[C@@H](C)O[C@H]5[C@H](O)[C@H]3O)[C@H]3COC(=O)[C@H]23)OCO4)cc(OC)c1O [Etoposide],4930 nM
2,COc1cc2ncnc(Nc3ccc(F)c(Cl)c3)c2cc1OCCCN1CCOCC1 [Gefitinib],> 10000 nM
3,CS(=O)(=O)CCNCc1ccc(-c2ccc3ncnc(Nc4ccc(OCc5cccc(F)c5)c(Cl)c4)c3c2)o1 [Lapatinib],> 10000 nM
4,NC1(c2ccc(-c3nc4ccn5c(=O)[nH]nc5c4cc3-c3ccccc3)cc2)CCC1 [MK-2206],> 10000 nM
5,O=C(c1cc(Cc2n[nH]c(=O)c3ccccc23)ccc1F)N1CCN(C(=O)C2CC2)CC1 [Olaparib],> 10000 nM
6,CC(=O)c1c(C)c2cnc(Nc3ccc(N4CCNCC4)cn3)nc2n(C2CCCC2)c1=O [Palbociclib],> 10000 nM
7,N#Cc1cnc(Nc2cc(NC[C@H]3CNCCO3)c(C(F)(F)F)cn2)cn1 [SRA737],2860 nM
8,Cn1cnc2c(F)c(Nc3ccc(Br)cc3Cl)c(C(=O)NOCCO)cc21 [Selumetinib],> 10000 nM
9,Cc1nc(-c2cn3c(n2)-c2ccc(-c4cnn(C(C)(C)C(N)=O)c4)cc2OCC3)n(C(C)C)n1 [Taselisib],5680 nM
